Assay results from patent publication US11339161B2, “Triazolo pyridines as modulators of gamma-secretase” (Boehringer Ingelheim International GmbH, priority 2017, dated 2022).
Where two headings read alike, the source gives them in different places.

Experiments:
[1] = test system: panel of 15 kinases; test: Z'-LYTE SelectScreen kinase panel: number of kinases with <40% inhibition; type: biochemical; details: of 15 kinases tested; 10 μmolar compound; ATP at Km app
[2] = biological target: FLT4 (VEGFR3) (Homo sapiens, UniProt P35916); test: Z'-LYTE SelectScreen biochemical kinase assay FLT4 (VEGFR3)
Sequence of FLT4 (VEGFR3) (P35916 25-1363): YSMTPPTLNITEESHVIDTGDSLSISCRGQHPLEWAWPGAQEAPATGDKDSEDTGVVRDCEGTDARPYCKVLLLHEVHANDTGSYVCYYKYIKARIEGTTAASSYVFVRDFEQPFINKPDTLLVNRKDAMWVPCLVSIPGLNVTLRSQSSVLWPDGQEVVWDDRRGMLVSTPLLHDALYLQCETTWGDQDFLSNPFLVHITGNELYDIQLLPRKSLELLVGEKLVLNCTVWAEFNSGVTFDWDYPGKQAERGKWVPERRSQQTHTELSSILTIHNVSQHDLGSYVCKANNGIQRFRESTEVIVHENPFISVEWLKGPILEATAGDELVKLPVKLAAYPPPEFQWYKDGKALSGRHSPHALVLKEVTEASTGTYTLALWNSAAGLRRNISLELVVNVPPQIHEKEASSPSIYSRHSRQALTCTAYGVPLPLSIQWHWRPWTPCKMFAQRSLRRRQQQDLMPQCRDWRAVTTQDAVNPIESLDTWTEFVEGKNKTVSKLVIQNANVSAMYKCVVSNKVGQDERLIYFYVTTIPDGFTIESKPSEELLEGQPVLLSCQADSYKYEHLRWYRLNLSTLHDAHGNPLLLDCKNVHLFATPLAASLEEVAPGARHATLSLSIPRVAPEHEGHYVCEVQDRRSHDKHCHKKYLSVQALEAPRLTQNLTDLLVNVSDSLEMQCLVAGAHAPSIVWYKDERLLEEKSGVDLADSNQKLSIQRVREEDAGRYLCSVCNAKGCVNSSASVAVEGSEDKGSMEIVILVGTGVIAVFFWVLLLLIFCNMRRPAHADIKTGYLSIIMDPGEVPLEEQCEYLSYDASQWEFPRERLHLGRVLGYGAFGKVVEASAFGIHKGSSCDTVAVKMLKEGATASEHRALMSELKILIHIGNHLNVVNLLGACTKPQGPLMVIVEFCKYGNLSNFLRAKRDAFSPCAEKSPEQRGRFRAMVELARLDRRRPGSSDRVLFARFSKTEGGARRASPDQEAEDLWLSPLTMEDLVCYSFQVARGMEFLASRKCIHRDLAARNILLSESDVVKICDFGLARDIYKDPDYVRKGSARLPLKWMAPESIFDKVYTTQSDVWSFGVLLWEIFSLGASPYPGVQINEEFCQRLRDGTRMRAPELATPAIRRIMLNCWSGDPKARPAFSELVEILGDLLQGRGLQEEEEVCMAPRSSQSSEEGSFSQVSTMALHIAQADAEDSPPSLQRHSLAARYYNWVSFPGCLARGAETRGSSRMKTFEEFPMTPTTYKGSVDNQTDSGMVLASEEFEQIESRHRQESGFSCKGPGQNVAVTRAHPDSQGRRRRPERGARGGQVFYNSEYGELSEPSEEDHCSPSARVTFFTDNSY
Source text: Thermo Fisher Scientific SelectScreen™ Biochemical Kinase Profiling Service Z′-LYTE™ Screening Protocol and Assay Conditions Assay Theory
The […] biochemical assay employs a fluorescence-based, coupled-enzyme format and is based on the differential sensitivity of phosphorylated and non-phosphorylated peptides to proteolytic cleavage. The peptide substrate is labeled with two fluorophores—one at each end—that make up a FRET pair. In the primary reaction, the kinase transfers the gamma-phosphate of ATP to a single tyrosine, serine or threonine residue in a synthetic FRET-peptide. In the secondary reaction, a site-specific protease recognizes and cleaves non-phosphorylated FRET-peptides. Phosphorylation of FRET-peptides suppresses cleavage by the Development Reagent. Cleavage disrupts FRET between the donor (i.e., coumarin) and acceptor (i.e., fluorescein) fluorophores on the FRET-peptide, whereas uncleaved, phosphorylated FRET-peptides maintain FRET. A ratiometric method, which calculates the ratio (Emission Ratio=Coumarin emission (445 nm)/Fluorescein emission (520 nm)) of donor emission to acceptor emission after excitation of the donor fluorophore at 400 nm, is used to quantitate reaction progress, as shown in the equation below. A significant benefit of this ratiometric method for quantitating reaction progress is the elimination of well-to-well variations in FRET-peptide concentration and signal intensities. As a result, the assay yields very high Z′-factor values (>0.7) at a low percent phosphorylation. Both cleaved and uncleaved FRET-peptides contribute to the fluorescence signals and therefore to the Emission Ratio. The extent of phosphorylation of the FRET-peptide can be calculated from the Emission Ratio. The Emission Ratio will remain low if the FRET-peptide is phosphorylated (i.e., no kinase inhibition) and will be high if the FRET-peptide is non-phosphorylated (i.e., kinase inhibition).
The Test Compounds are screened in 1% DMSO (final) in the well. For 10 point titrations, 3-fold serial dilutions are conducted from the starting concentration of the customer's choosing.
All Peptide/Kinase Mixtures are diluted to a 2× working concentration in the appropriate Kinase Buffer (see section Kinase Specific Assay Conditions for a complete description).
All ATP Solutions are diluted to a 4× working concentration in Kinase Buffer (50 mM HEPES pH 7.5, 0.01% BRIJ-35, 10 mM MgCl2, 1 mM EGTA). ATP Km apparent is previously determined using a Z″-LYTE assay.
The Development Reagent is diluted in Development Buffer (see section Kinase-Specific Assay Conditions—Direct and Cascade for a complete description).
Bar-coded Corning, low volume NBS, black 384-well plate (Corning Cat. #4514) • 1. 100 nL—100× Test Compound in 100% DMSO • 2. 2.4 μL—Kinase buffer • 3. 5 μL—2× Peptide/Kinase Mixture • 4. 2.5 μL—4×ATP Solution • 5. 30—second plate shake • 6. 60—minute Kinase Reaction incubation at room temperature • 7. 5 μL—Development Reagent Solution • 8. 30—second plate shake • 9. 60—minute Development Reaction incubation at room temperature • 10. Read on fluorescence plate reader and analyze the data Z′-LYTE Assay Controls
SelectScreen Kinase Profiling Service uses XLfit from IDBS. The dose response curve is curve fit to model number 205 (sigmoidal dose-response model).
The 2×FLT4 (VEGFR3)/Tyr 04 mixture is prepared in 50 mM HEPES pH 7.5, 0.01% BRIJ-35, 10 mM MgCl2, 4 mM MnCl2, 1 mM EGTA, 2 mM DTT. The final 10 μL Kinase Reaction consists of 2-10.5 ng FLT4 (VEGFR3) and 2 μM Tyr 04 in 50 mM HEPES pH 7.5, 0.01% BRIJ-35, 10 mM MgCl2, 2 mM MnCl2, 1 mM EGTA, 1 mM DTT. After the 1 hour Kinase Reaction incubation, 5 μL of a 1:64 dilution of Development Reagent B is added.

[3] = test system: kinases; test: Z'-LYTE SelectScreen kinase panel: number of kinases with <40% inhibition out of 15 tested; type: biochemical; details: 10 μmolar (10000 nM) compound; [ATP] Km app; 15 kinases tested
[4] = 10 μmolar compound concentration, ATP at Km app, read-out: FLT4 (VEGFR3) inhibition
[5] = read-out: % Inhibition mean FLT4 (VEGFR3)

| Compound | No. of kinases with <40% inhibition [1] | inhibition at 10 µM [2, 4] [%] | inhibition at 10 µM [2, 5] [%] | No. of kinases with <40% inhibition [3] |
| --- | --- | --- | --- | --- |
| Cc1cc(F)ccc1-c1cccn2nc(Nc3ccc4c(cnn4C)c3)nc12 [Example 9, [8-(4-fluoro-2-methyl-phenyl)-[1,2,4]triazolo[1,5-a]pyridine-2-yl]-(1-methyl-1H-indazol-5-yl)-amine] | – | > 80 | 86 | 7/15 |
| CCCn1ncc2c1CCC(Nc1nc3c(-c4ccc(F)cc4C)cccn3n1)C2 (centres unmarked) [Example 43, [8-(4-fluoro-2-methyl-phenyl)-[1,2,4]triazolo[1,5-a]pyridine-2-yl]-(1-propyl-4,5,6,7-tetrahydro-1H-indazol-5-yl)-amine] | – | < 40 | 11 | 14/15 |
| CCCCCn1ncc2c1CCC(Nc1nc3c(-c4ccc(F)cc4C)cccn3n1)C2 (centres unmarked) [Example 47, [8-(4-fluoro-2-methyl-phenyl)-[1,2,4]triazolo[1,5-a]pyridine-2-yl]-(1-pentyl-4,5,6,7-tetrahydro-1H-indazol-5-yl)-amine] | – | < 40 | 13 | 15/15 |
| Cc1cc(F)ccc1-c1cccn2nc(NC3CCc4c(cnn4C)C3)nc12 (centres unmarked) [Example 10, [8-(4-fluoro-2-methyl-phenyl)-[1,2,4]triazolo[1,5-a]pyridine-2-yl]-(1-methyl-4,5,6,7-tetrahydro-1H-indazol-5-yl)-amine] | – | < 40 | 22 | 13/15 |
| Cc1cc(F)ccc1-c1cccn2nc(NC3CCc4cnn(C)c4C3)nc12 (centres unmarked) [Example 40, [8-(4-Fluoro-2-methyl-phenyl)-[1,2,4]triazolo[1,5-a]pyridine-2-yl]-(1-methyl-4,5,6,7-tetrahydro-1H-indazol-6-yl)-amine] | – | < 40 | 16 | 13/15 |
| CCn1nc(Cl)c2c1CCC(Nc1nc3c(-c4ccc(F)cc4C)cccn3n1)C2 (centres unmarked) [Example 48, (3-Chloro-1-ethyl-4,5,6,7-tetrahydro-1H-indazol-5-yl)-[8-(4-fluoro-2-methyl-phenyl)-[1,2,4]triazolo[1,5-a]pyridine-2-yl]-amine] | – | < 40 | 19 | 14/15 |
| Cc1cc(F)ccc1-c1cccn2nc(NC3CCc4c(cnn4C(C)C)C3)nc12 (centres unmarked) [Example 44, [8-(4-fluoro-2-methyl-phenyl)-[1,2,4]triazolo[1,5-a]pyridine-2-yl]-(1-isopropyl-4,5,6,7-tetrahydro-1H-indazol-5-yl)-amine] | – | 40 to 80 | 43 | 13/15 |
| CCn1nnc2c1CCC(Nc1nc3c(-c4ccc(F)cc4C)cccn3n1)C2 (centres unmarked) [Example 51, (1-Ethyl-4,5,6,7-tetrahydro-1H-benzotriazol-5-yl)-[8-(4-fluoro-2-methyl-phenyl)-[1,2,4]triazolo[1,5-a]pyridine-2-yl]-amine] | – | < 40 | 15 | 15/15 |
| Cc1cc(F)ccc1-c1cccn2nc(NC3CCc4c(cnn4CC(C)C)C3)nc12 (centres unmarked) [Example 45, [8-(4-fluoro-2-methyl-phenyl)-[1,2,4]triazolo[1,5-a]pyridine-2-yl]-(1-isobutyl-4,5,6,7-tetrahydro-1H-indazol-5-yl)-amine] | – | < 40 | 33 | 14/15 |
| CCn1ncc2c1CCC(Nc1nc3c(-c4ccc(F)cc4C)cccn3n1)C2 (centres unmarked) [Example 42, (1-Ethyl-4,5,6,7-tetrahydro-1H-indazol-5-yl)-[8-(4-fluoro-2-methyl-phenyl)-[1,2,4]triazolo[1,5-a]pyridine-2-yl]-amine] | – | < 40 | 31 | 15/15 |
| CCCCn1ncc2c1CCC(Nc1nc3c(-c4ccc(F)cc4C)cccn3n1)C2 (centres unmarked) [Example 46, [8-(4-fluoro-2-methyl-phenyl)-[1,2,4]triazolo[1,5-a]pyridine-2-yl]-(1-butyl-4,5,6,7-tetrahydro-1H-indazol-5-yl)-amine] | – | < 40 | 29 | 14/15 |
| CCn1ncc2c1C(C)CC(Nc1nc3c(-c4cc(F)c(F)c(F)c4)cccn3n1)C2 (centres unmarked) [Example 49, (1-Ethyl-7-methyl-4,5,6,7-tetrahydro-1H-indazol-5-yl)-[8-(3,4,5-trifluoro-phenyl)-[1,2,4]triazolo[1,5-a]pyridine-2-yl]-amine] | – | < 40 | 33 | 14/15 |

Further lines, results first:

| No. of kinases with <40% inhibition [1] | inhibition at 10 µM [2, 4] [%] | inhibition at 10 µM [2, 5] [%] | No. of kinases with <40% inhibition [3] | Compound |
| --- | --- | --- | --- | --- |
| 13/15 | < 40 | 39 | – | CCn1ncc2c1CCC(Nc1nc3c(-c4cccc(Cl)c4)cccn3n1)C2 (centres unmarked) [Example 59, [8-(3-Chloro-phenyl)-[1,2,4]triazolo[1,5-a]pyridine-2-yl]-(1-ethyl-4,5,6,7-tetrahydro-1H-indazol-5-yl)-amine] |
| 11/15 | 40 to 80 | 62 | – | CCn1ncc2c1CCC(Nc1nc3c(-c4ccc(OC)nc4)cccn3n1)C2 (centres unmarked) [Example 71, (1-Ethyl-4,5,6,7-tetrahydro-1H-indazol-5-yl)-[8-(6-methoxy-pyridin-3-yl)-[1,2,4]triazolo[1,5-a]pyridine-2-yl]-amine] |
| – | < 40 | 36 | 14/15 | CCn1ncc2c1CC[C@@H](Nc1nc3c(-c4ccc(F)cc4C)cccn3n1)C2 [Example R-42, (R)-(1-Ethyl-4,5,6,7-tetrahydro-1H-indazol-5-yl)-[8-(4-fluoro-2-methyl-phenyl)-[1,2,4]triazolo[1,5-a]pyridine-2-yl]-amine] |
| – | 40 to 80 | 42 | 13/15 | CCn1ncc2c1CCC(Nc1nc3c(-c4ccc(F)cc4)cccn3n1)C2 (centres unmarked) [Example 55, (1-Ethyl-4,5,6,7-tetrahydro-1H-indazol-5-yl)-[8-(4-fluoro-phenyl)-[1,2,4]triazolo[1,5-a]pyridine-2-yl]-amine] |
| – | – | 35 | 12/15 | CCn1ncc2c1CCC(Nc1nc3c(-c4ccccc4C)cccn3n1)C2 (centres unmarked) [Example 56, (1-Ethyl-4,5,6,7-tetrahydro-1H-indazol-5-yl)-[8-(2-methyl-phenyl)-[1,2,4]triazolo[1,5-a]pyridine-2-yl]-amine] |
| – | 40 to 80 | 43 | 12/15 | CCn1ncc2c1CCC(Nc1nc3c(-c4ccccc4)cccn3n1)C2 (centres unmarked) [Example 57, (1-Ethyl-4,5,6,7-tetrahydro-1H-indazol-5-yl)-(8-phenyl-[1,2,4]triazolo[1,5-a]pyridine-2-yl)-amine] |
| – | < 40 | 38 | 15/15 | CCc1nn(C)c2c1CCC(Nc1nc3c(-c4ccc(F)cc4C)cccn3n1)C2 (centres unmarked) [Example 54, (3-Ethyl-1-methyl-4,5,6,7-tetrahydro-1H-indazol-6-yl)-[8-(4-fluoro-2-methyl-phenyl)-[1,2,4]triazolo[1,5-a]pyridine-2-yl]-amine] |
